Source: patent US20240101546A1, “HETEROARYL-ACETYLENES, PHARMACEUTICAL COMPOSITIONS THEREOF, AND THEIR THERAPEUTIC APPLICATIONS” (Eubulus Biotherapeutics Inc., priority 2020, published 2024)

The compounds below were run on hepatocellular carcinoma cell line Hub-7 (assay: Cell proliferation assay, Hub-7 (CELL-TITER GLO)). Conditions: Hub-7 cells, 24 h incubation, cell viability by CELL-TITER GLO, top concentration 10 μM; read-out: EC50, Inhibition of Hub-7 Cell Proliferation.
Format: cell-based
Experimental: The activity of a compound was determined in a cell proliferation assay using the hepatocellular carcinoma cell line Hub-7. Cells (4,000 cells per well) were seeded in a 96-well tissue culture plate. After incubated overnight, the compound was added at predetermined concentrations, starting with 10 μM and followed by 3-fold serial dilution. After the cells were incubated for 24 h, cell viability was determined using a CELL-TITER GLO® assay. The CELL-TITER GLO® reagent (50 μL) was added to each well and the luminescence was measured by a multimode microplate reader after a brief period of shaking. EC50 values were determined for the compound. The results are summarized in Table 1, wherein A represents a value no greater than 200 nM, B represents a value greater than 200 nM but no greater than 1 μM, C represents a value greater than 1 μM but no greater than 5 μM, and D represents a value greater than 5 μM.

SMILES | EC50 [nM]
C#Cc1nc(C(=O)NCc2ccc(-c3cscn3)cc2)cs1 [Compound C55, 2-Ethynyl-N-(4-(thiazol-4-yl)benzyl)thiazole-4-carboxamide] | 200 to 1000
C#Cc1nc(C(=O)NCc2cccc(-c3cn[nH]c3)c2)cs1 [Compound C58, N-(3-(1H-Pyrazol-4-yl)benzyl)-2-ethynylthiazole-4-carboxamide] | 1000 to 5000
C#Cc1nc(C(=O)NCc2cccc(-c3cnn(C)c3)c2)cs1 [Compound C59, 2-Ethynyl-N-(3-(1-methyl-1H-pyrazol-4-yl)benzyl)thiazole-4-carboxamide] | 1000 to 5000
C#Cc1nc(C(=O)NC2Cc3ccccc3C2)cs1 [Compound C62, N-(2,3-Dihydro-1H-inden-2-yl)-2-ethynylthiazole-4-carboxamide] | 200 to 1000
C#Cc1nc(C(=O)NCc2ccccc2C#N)cs1 [Compound C63, N-(2-Cyanobenzyl)-2-ethynylthiazole-4-carboxamide] | ≤ 200
C#Cc1nc(C(=O)NCc2cccc(-c3cccnc3)c2)cs1 [Compound C65, 2-Ethynyl-N-(3-(pyridin-3-yl)benzyl)thiazole-4-carboxamide] | 1000 to 5000
C#Cc1nc(C(=O)NCc2ccc3ncsc3c2)cs1 [Compound C66, N-(Benzo[d]thiazol-6-ylmethyl)-2-ethynylthiazole-4-carboxamide] | 1000 to 5000
C#Cc1nc(C(=O)NCc2ccccc2CO)cs1 [Compound C70, 2-Ethynyl-N-(2-(hydroxymethyl)benzyl)thiazole-4-carboxamide] | 1000 to 5000
C#Cc1nc(C(=O)N[C@H]2CCc3ccccc32)cs1 [Compound C71, (S)—N-(2,3-Dihydro-1H-inden-1-yl)-2-ethynylthiazole-4-carboxamide] | 200 to 1000
C#Cc1nc(C(=O)N[C@@H]2CCc3ccccc32)cs1 [Compound C72, (R)—N-(2,3-Dihydro-1H-inden-1-yl)-2-ethynylthiazole-4-carboxamide] | 200 to 1000
C#Cc1nc(C(=O)NCc2ccc(CCC(=O)OC)cc2)cs1 [Compound C73, Methyl 3-(4-((2-ethynylthiazole-4-carboxamido)methyl)phenyl)propanoate] | > 5000
C#Cc1nc(C(=O)NCc2ccccc2C(=O)OC)cs1 [Compound C74, Methyl 2-((2-ethynylthiazole-4-carboxamido)methyl)benzoate] | 200 to 1000
C#Cc1nc(C(=O)NCCc2ccc(-c3cnn(C)c3)cc2)cs1 [Compound C75, 2-Ethynyl-N-(4-(1-methyl-1H-pyrazol-4-yl)phenethyl)thiazole-4-carboxamide] | 200 to 1000
C#Cc1nc(C(=O)NCCc2ccc(-c3cn[nH]c3)cc2)cs1 [Compound C76, N-(4-(1H-Pyrazol-4-yl)phenethyl)-2-ethynylthiazole-4-carboxamide] | 1000 to 5000
C#Cc1nc(NC(=O)Cc2ccccc2)cs1 [Compound C77, N-(2-Ethynylthiazol-4-yl)-2-phenylacetamide] | 200 to 1000
C#Cc1nc(C(=O)NC2CCN(c3ccccc3)CC2)cs1 [Compound C78, 2-Ethynyl-N-(1-phenylpiperidin-4-yl)thiazole-4-carboxamide] | 200 to 1000
C#Cc1nc(C(=O)NCCc2cccc(NC(C)=O)c2)cs1 [Compound C82, N-(3-Acetamidophenethyl)-2-ethynylthiazole-4-carboxamide] | 1000 to 5000
C#Cc1nc(C(=O)NCc2ccc(-c3cnn(C)c3)cc2)cs1 [Compound C83, 2-Ethynyl-N-(4-(1-methyl-1H-pyrazol-4-yl)benzyl)thiazole-4-carboxamide] | 1000 to 5000
C#Cc1nc(C(=O)NCCc2ccc(C(=O)OC)cc2)cs1 [Compound C84, Methyl 4-(2-(2-ethynylthiazole-4-carboxamido)ethyl)benzoate] | 1000 to 5000
C#Cc1nc(C(=O)NCCc2cccc([N+](=O)[O-])c2)cs1 [Compound C87, 2-Ethynyl-N-(3-nitrophenethyl)thiazole-4-carboxamide] | 200 to 1000
C#Cc1nc(C(=O)NCCc2ccc(NC(C)=O)cc2)cs1 [Compound C88, N-(4-Acetamidophenethyl)-2-ethynylthiazole-4-carboxamide] | 1000 to 5000
C#Cc1nc(C(=O)NCc2ccc(NC(C)=O)cc2)cs1 [Compound C89, N-(4-Acetamidobenzyl)-2-ethynylthiazole-4-carboxamide] | > 5000
C#Cc1nc(C(=O)NCc2ccc(-c3cc[nH]n3)cc2)cs1 [Compound C91, N-(4-(1H-Pyrazol-3-yl)benzyl)-2-ethynylthiazole-4-carboxamide] | 1000 to 5000
C#Cc1nc(C(=O)NCc2cccc(NC(C)=O)c2)cs1 [Compound C94, N-(3-Acetamidobenzyl)-2-ethynylthiazole-4-carboxamide] | 1000 to 5000
C#Cc1nc(C(=O)NCCc2cccc(C(=O)OC)c2)cs1 [Compound C97, Methyl 3-(2-(2-ethynylthiazole-4-carboxamido)ethyl)benzoate] | 200 to 1000
C#Cc1nc(C(=O)NCc2ccccc2)cn1C [Compound C98, N-Benzyl-2-ethynyl-1-methyl-1H-imidazole-4-carboxamide] | > 5000
C#Cc1nc(C(=O)NCCc2ccc(S(C)(=O)=O)cc2)cs1 [Compound C101, 2-Ethynyl-N-(4-(methylsulfonyl)phenethyl)thiazole-4-carboxamide] | > 5000

Next, values leading:

EC50 [nM] | SMILES
200 to 1000 | C#Cc1nc(C(=O)NCc2ccc(-c3ccn(C)n3)cc2)cs1 [Compound C54, 2-Ethynyl-N-(4-(1-methyl-1H-pyrazol-3-yl)benzyl)thiazole-4-carboxamide]
1000 to 5000 | C#Cc1nc(C(=O)NCc2cccc(Cl)c2)c(-c2ccccc2)s1 [Compound C56, N-(3-Chlorobenzyl)-2-ethynyl-5-phenylthiazole-4-carboxamide]
200 to 1000 | C#Cc1nc(C(=O)NCCc2ccc(-c3cncs3)cc2)cs1 [Compound C57, 2-Ethynyl-N-(4-(thiazol-5-yl)phenethyl)thiazole-4-carboxamide]
200 to 1000 | C#Cc1nc(C(=O)NCc2cccc(-c3cc[nH]n3)c2)cs1 [Compound C60, N-(3-(1H-Pyrazol-3-yl)benzyl)-2-ethynylthiazole-4-carboxamide]
200 to 1000 | C#Cc1nc(C(=O)NCc2ccc(-c3cncs3)cc2)cs1 [Compound C61, 2-Ethynyl-N-(4-(thiazol-5-yl)benzyl)thiazole-4-carboxamide]
≤ 200 | C#Cc1nc(C(=O)NCc2ccc3ccccc3c2)cs1 [Compound C64, 2-Ethynyl-N-(naphthalen-2-ylmethyl)thiazole-4-carboxamide]
1000 to 5000 | C#Cc1nc(C(=O)N[C@H](C)c2cccc(Cl)c2)cs1 [Compound C67, (R)—N-(1-(3-Chlorophenyl)ethyl)-2-ethynylthiazole-4-carboxamide]
200 to 1000 | C#Cc1nc(C(=O)NC2(c3cccc(Cl)c3)CC2)cs1 [Compound C68, N-(1-(3-Chlorophenyl)cyclopropyl)-2-ethynylthiazole-4-carboxamide]
≤ 200 | C#Cc1nc(C(=O)N[C@@H](C)c2cccc(Cl)c2)cs1 [Compound C69, (S)—N-(1-(3-Chlorophenyl)ethyl)-2-ethynylthiazole-4-carboxamide]
200 to 1000 | C#Cc1nc(C(=O)NCCc2ccc(-c3cccnc3)cc2)cs1 [Compound C79, 2-Ethynyl-N-(4-(pyridin-3-yl)phenethyl)thiazole-4-carboxamide]
200 to 1000 | C#Cc1nc(C(=O)NCCc2ccc(Br)cc2)cs1 [Compound C80, N-(4-Bromophenethyl)-2-ethynylthiazole-4-carboxamide]
1000 to 5000 | C#Cc1nc(C(=O)NCCc2cccc(NS(C)(=O)=O)c2)cs1 [Compound C81, 2-Ethynyl-N-(3-(methylsulfonamido)phenethyl)thiazole-4-carboxamide]
1000 to 5000 | C#Cc1nc(C(=O)NCCc2cccc(N)c2)cs1 [Compound C85, N-(3-Aminophenethyl)-2-ethynylthiazole-4-carboxamide]
1000 to 5000 | C#Cc1nc(C(=O)NCc2ccc3c(c2)OCCO3)cs1 [Compound C86, N-((2,3-Dihydrobenzo[b][1,4]dioxin-6-yl)methyl)-2-ethynylthiazole-4-carboxamide]
> 5000 | N#Cc1nc(C(=O)NCc2ccccc2)cs1 [Compound C90, N-Benzyl-2-cyanothiazole-4-carboxamide]
1000 to 5000 | C#Cc1nc(C(=O)NCc2ccc(-c3cn[nH]c3)cc2)cs1 [Compound C92, N-(4-(1H-Pyrazol-4-yl)benzyl)-2-ethynylthiazole-4-carboxamide]
200 to 1000 | C#Cc1nc(C(=O)NCc2ccc(-c3cccnc3)cc2)cs1 [Compound C93, 2-Ethynyl-N-(4-(pyridin-3-yl)benzyl)thiazole-4-carboxamide]
1000 to 5000 | C#Cc1nc(C(=O)NCc2cccc(N)c2)cs1 [Compound C95, N-(3-Aminobenzyl)-2-ethynylthiazole-4-carboxamide]
1000 to 5000 | C#Cc1nc(C(=O)NCc2ccc3ncccc3c2)cs1 [Compound C96, 2-Ethynyl-N-(quinolin-6-ylmethyl)thiazole-4-carboxamide]
1000 to 5000 | C#Cc1nc(C(=O)NCCc2ccc(NS(C)(=O)=O)cc2)cs1 [Compound C99, 2-Ethynyl-N-(4-(methylsulfonamido)phenethyl)thiazole-4-carboxamide]
200 to 1000 | C#Cc1nc(C(=O)N(C)CCc2ccc([N+](=O)[O-])cc2)cs1 [Compound C100, 2-Ethynyl-N-methyl-N-(4-nitrophenethyl)thiazole-4-carboxamide]
200 to 1000 | C#Cc1nc(C(=O)NCCc2ccc(C#N)cc2)cs1 [Compound C102, N-(4-Cyanophenethyl)-2-ethynylthiazole-4-carboxamide]
